Experimental data from ChEMBL document CHEMBL5365447, “Pronucleotides of 2',3'-Dideoxy-2',3'-Didehydrothymidine as Potent Anti-HIV Compounds” (J Med Chem, 2023).
Calls of active or inactive are those of the source. No cut-off for these calls is given here.

Assays:
[1] = Retention time of the compound by HPLC analysis; format: physicochemical
[2] = Prodrug conversion in pH 7.3 phosphate buffer assessed as ((2S,5R)-5-(5-methyl-2,4-dioxo-3,4-dihydropyrimidin-1(2H)-yl)-2,5-dihydrofuran-2-yl)methyl tri-hydrogen diphosphate formation by measuring half life in presence of pig liver esterase by HPLC analysis; format: ADME
[3] = Prodrug conversion in human CEM/0 cell extract assessed as metabolite formation by measuring half life by HPLC analysis; format: ADME; settings: ccrf-cem
[4] = Prodrug conversion in human CEM/0 cell extract assessed as ((2S,5R)-5-(5-methyl-2,4-dioxo-3,4-dihydropyrimidin-1(2H)-yl)-2,5-dihydrofuran-2-yl)methyl tri-hydrogen diphosphate formation by HPLC analysis; format: ADME; settings: ccrf-cem
[5] = system: Human immunodeficiency virus 1; experiment: Antiviral activity against HIV-1 HE infected in wild-type human CEM/0 cells assessed as inhibition of virus-induced cytopathic effect incubated for 4 to 5 days by light microscopic analysis; format: functional, organism-based; settings: Human immunodeficiency virus 1, HE, CCRF-CEM
[6] = system: Human immunodeficiency virus 2; experiment: Antiviral activity against HIV-2 ROD infected in thymidine kinase-deficient human CEM cells assessed as inhibition of virus-induced cytopathic effect incubated for 4 to 5 days by light microscopic analysis; format: functional, organism-based; settings: Human immunodeficiency virus 2, ROD, CCRF-CEM
[7] = Cytotoxicity against human CEM cells assessed as reduction in cell viability incubated for 4 to 5 days by light microscopic analysis; format: toxicity, cell-based; settings: CEM cells (CCRF-CEM), time 4-5 day
[8] = Selectivity index, ratio of CC50 for human CEM cells to EC50 for HIV-2 ROD infected in thymidine kinase-deficient human CEM cells; format: toxicity; settings: read-out: Ratio CC50/EC50
[9] = system: Human immunodeficiency virus; experiment: Substrate activity at HIV reverse transcriptase measured after 4 hrs by electrophoresis based primer extension assay
[10] = system: Human immunodeficiency virus 1; experiment: Potency index, ratio of 3'-deoxy-2',3'-dehydrothymidine EC50 to compound EC50 for antiviral activity against HIV-1 HE infected in wild-type human CEM/0 cells; format: functional
[11] = system: Human immunodeficiency virus 2; experiment: Potency index, ratio of 3'-deoxy-2',3'-dehydrothymidine EC50 to compound EC50 for antiviral activity against HIV-2 ROD infected in thymidine kinase-deficient human CEM[…] cells; format: functional

## CCCCCCCCCCCCCCCCCCP(=O)(OC)OP(=O)(O)OP(=O)(O)OC[C@@H]1C=C[C@H](n2cc(C)c(=O)[nH]c2=O)O1.N.N (stereo partly specified)
[1]
  Retention_time: 15.2 min
[2]
  t1/2: > 150 h
[3]
  t1/2: > 15 h
[4]
  Drug metabolism: Metabolite_Detected
[5]
  EC50: 51 nM
[6]
  EC50: 480 nM
[7]
  CC50: 40000 nM
[8]
  selectivity ratio: 83
[9]
  Activity: Active
[10]
  Ratio EC50: 4
[11]
  Ratio EC50: 10000
